The results in this text go back to US20050271588A1, “Liposome targeting of matrix metalloproteinase inhibitors” (priority 2001, published 2005).

Positions of bridges follow the written chain, without caps; N, C: chain ends. No end group written: not given here.

Series [1] deals with T1, MMP-9 (Homo sapiens, UniProt P14780).
T1 construct: made in house
The experiment in a line: Gelatinase assay with fluorogenic peptide substrate. Format: biochemical. The note with it: 100 μM EDTA, MMP-9 5 nM. The method, then: The activity of MMP-9 was measured also using the fluorogenic peptide substrate MCA-Pro-Leu-Ala-Nva-Dpa-Ala-Arg (Calbiochem, San Diego, Calif., USA). More specifically, 50 ng of MMP-9 was preincubated in PBS for 30 min at RT in the absence or presence of CTT or its liposome complex. Subsequently, the fluorogenic substrate was added to a final concentration of 0.1 mM and the incubation was continued at 37° C. for 15 min, whereafter fluorescence intensities were measured with exitation at 340 nm and emission at 390 nm in a microtiter plate reader.

The test system of series [2] is HT1080 cells. The experiment in a line: Blocking of CTT-liposome uptake by antibodies and proteinase inhibitors. The series is classed as cell-based, human. The note with it: TIMP-2 10 μg/ml, Marimastat 50 μM, EDTA 500 μM, aprotinin 1 μg/ml. The procedure:
We further investigated if cell surface-bound gelatinases were the receptors for the CTT-containing liposomes. Cells were washed to remove soluble forms of gelatinases, and then preincubated for 30 min with MMP inhibitors or specific antibodies before the addition of liposomes.
(§1) We also preincubated cells with phorbol ester (TPA) (50 nM). Preincubation times varied from 15 to 75 min. Treatment of cells by phorbol ester (TPA) increases both expression and secretion of MMP-9 (Toth et al., 1997). […] M-17 inhibits the binding of MMP-9 to the substrate and this inhibition is expected to be concentration dependent. It is not known if rabbit polyclonal antibody blocks human MMP-2 (Murphy et al., 1994). Final concentrations of the indicated peptide, Adriamycin, antibodies and liposomes were 85 μM, 0.2 mM, 20 μg/ml, and 0.4 μM, respectively.

Series [3] has as its system cells. The experiment in a line: Effect of phorbol ester (TPA) preincubation on CTT-liposome uptake. The series is classed as cell-based. The note with it: TPA 50 nM. The procedure:
as §1, with “1997). Results are presented as RFI=I/I0, where RFI is relative fluorescence intensity, I0 is the emission intensity for the control, 2 μM rhodamine B in LUVs without the peptides, and I is the rhodamine emission for the peptide-liposome complexes taken up by the cells.” for “1997).”

For series [4], the system named is U937 cells. As to the kind of experiment: Cell killing by Adriamycin-containing liposomes, EthD-1 viability assay. The series is classed as cell-based. The note with it: U937, 24 h, peptide 85 μM, Adriamycin 0.4 μM. The procedure: Viability assays. Peptide-liposome complexes with the encapsulated adriamycin were made as described above, yielding final concentrations of peptide, lipid, and adriamycin of 85 μM, 0.2 mM, and 0.4 μM, respectively, and were subsequently added to a ten μl (10^5 cells) sample of U937 cells. For the detection of dead cells EthD-1 was used. This fluorophore is membrane-impermeable and emits fluorescence only when bound to DNA (Papadopoulos et al., 1994). Accordingly, EthD-1 readily enters dead cells and binds to their DNA, its fluorescence intensity correlating to the amount of dead cells. EthD-1 emission was measured using microplate reader with excitation at 495 nm and emission at 635 nm. Student's t-test was used to assess statistical significance.

Series [5] has as its system U937 cells. The experiment in a line: Uptake of liposome-encapsulated rhodamine B by U937 cells. The series is classed as cell-based. The note with it: U937, fluorescence plate-reader. The method, then: In another series of experiments the water-soluble fluorescent marker rhodamine B was encapsulated into liposomes and its uptake by cells was measured. Samples for rhodamine B uptake were prepared by mixing 60 μl of POPC/POPE (80/20, mol/mol, one mM) liposomes containing 10 μM rhodamine B to 300 μl of DMEM medium supplemented with 10% fetal bovine serum, Glutamax I, penicillin 100 U/ml and streptomycin 0.1 mg/ml. Peptides were then added to obtain a final concentration of […]. Ten μl (10^5 cells) of medium containing the indicated cells were combined with the LUVs. After an incubation for 15 min at 37° C. or +4° C. liposomes not bound to the cells were removed from 96-well plates by rinsing three times with cold PBS. The +4° C. temperature served as a control for non-endocytotic liposome uptake by cells (Oess and Hildt, 2000). The relative amount of rhodamine B associated with the cells was determined using microplate reader with excitation at 535 nm and emission at 595 nm.
as §1, with “1997). Results are presented as RFI=I/I0, where RFI is relative fluorescence intensity, I0 is the emission intensity for the control, 2 μM rhodamine B in LUVs without the peptides, and I is the rhodamine emission for the peptide-liposome complexes taken up by the cells.” for “1997).”
Cell cultures and fluorescence microscopy. U937 (ECACC 85011440), HT 1080 (ECACC 85111505), and CHO (ECACC 85050302) cells were cultured in RPMI or DMEM medium supplemented with 10% fetal bovine serum, Glutamax I, penicillin (100 U/ml), and streptomycin (0.1 mg/ml). Uptake of rhodamine B containing liposomes by the cultured cells was verified by fluorescence microscopy. An inverted fluorescence microscope (Zeiss IM 35) equipped with Nikon extra long working distance objectives (20×) and (40×) were used. Samples were prepared as described for the rhodamine uptake assay, with slight modifications. Accordingly, instead of washing, U937, HT 1080, and CHO cells with the rhodamine-containing liposomes and in cell culture medium were transferred into Nunclon 48 plate wells. Excitation and emission wavelengths were selected by suitable bandpass filters (Melles-Griot) transmitting in the range 535 nm and >600 nm, respectively. Fluorescence images were viewed with a Peltier-cooled digital camera (C4742-95, Hamamatsu, Japan) connected to a computer and operated by software (Hipic 5.0) provided by the instrument manufacturer.

Series [6] in a line: Penetration of peptides into lipid monolayers (surface pressure). The series is classed as physicochemical. The note with it: eggPC monolayer, peptide 200 μM. The procedure: Interaction of peptides with lipid monolayers. Penetration of peptides into mono-molecular lipid films was measured using magnetically stirred circular wells (subphase volume 400 μl). Surface pressure (π) was monitored with a Wilhelmy wire attached to a microbalance (μ TroughS, Kibron Inc., Helsinki, Finland) connected to a Pentium PC. Lipids were spread on the air-buffer (PBS, pH 7) interface in chloroform (approx. one mg/ml) to different initial surface pressures (π0) and were allowed to equilibrate for 15 min before the addition of the indicated peptides (4 μ1,10 mg/ml in H2O and CWL in DMSO) into the subphase. The increment in π from the initial surface pressures (π0) after the addition of peptide was complete in approximately 20 min and the difference between π0 and the value observed after binding of the peptide into the film was taken as Δπ. All measurements were performed at ambient temperature (˜+24° C.). The data are represented as Δπ vs. […] (Brockman, 1999).

Series [7] can be described thus: Assay for lipid mixing (liposome fusion, NBD-PE/DPPRho). The series is classed as physicochemical. The note with it: within 15 min. The procedure:
The extent of exposure of Trp to the aqueous phase was studied using I— as a collisional quencher (Lakowicz, 1999). The extent of quenching was calculated by using the equation: F0/F=1+k[Q]=1+kqτ0[Q] where F0 and F are Trp fluorescence intensities at 345 nm in the absence and presence of the quencher, Q, τ0 is Trp fluorescence lifetime in the absence of the quencher, k is the Stern-Volmer constant (obtained from the slope of the linear fit of the data). Fluorescence of Trp in CTT (5 μM) and its quenching were measured in the absence and presence of POPC/POPE (80:20, mol/mol) LUVs (final lipid concentration of 0.5 mM). The results were corrected for background caused by PBS and liposomes. Assay for lipid mixing. The ability of the CTT, CLP, STT, and CWL peptides to induce liposome fusion was assessed by measuring lipid mixing, as described earlier (Struck et al., 1981). In brief, NBD-PE (X=0.01) and DPPRho (X=0.01) were incorporated into liposomes (POPC/POPE, 78/20, mol/mol). Due to the spectral overlap of NBD-PE (donor) emission and DPPRho (acceptor) absorption resonance energy transfer between these dyes is highly efficient. As liposomes containing NBD-PE and DPPRho are mixed with non-labeled liposomes, fusion is observed as an increase in the emission intensity of NBD-PE due to the dilution of probes. Excitation and emission wavelengths for NBD-PE at 430 nm and 530 nm were used. All fluorescence measurements were done at 37° C.

In series [8] the target is T2, MMP-2 (Homo sapiens, UniProt P08253).
T2 construct: purchased Boehringer Mannheim GmbH (Germany)
T2 sequence (P08253 110-660): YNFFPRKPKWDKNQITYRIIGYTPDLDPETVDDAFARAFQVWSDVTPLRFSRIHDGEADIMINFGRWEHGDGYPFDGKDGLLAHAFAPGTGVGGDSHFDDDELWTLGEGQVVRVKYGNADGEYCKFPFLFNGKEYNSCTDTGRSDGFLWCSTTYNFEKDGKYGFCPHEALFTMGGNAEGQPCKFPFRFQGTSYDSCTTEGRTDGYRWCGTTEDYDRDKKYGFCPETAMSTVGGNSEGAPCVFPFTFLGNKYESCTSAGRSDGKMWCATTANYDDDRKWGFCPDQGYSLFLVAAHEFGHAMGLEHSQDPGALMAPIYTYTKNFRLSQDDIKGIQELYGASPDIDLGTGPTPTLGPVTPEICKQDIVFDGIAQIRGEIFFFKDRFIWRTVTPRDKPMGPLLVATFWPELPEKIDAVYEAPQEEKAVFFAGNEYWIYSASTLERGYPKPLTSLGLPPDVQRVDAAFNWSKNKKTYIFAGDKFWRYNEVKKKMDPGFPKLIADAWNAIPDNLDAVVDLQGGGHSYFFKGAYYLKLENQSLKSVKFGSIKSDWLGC
The experiment in a line: Casein zymography, inhibition of MMP-2. The series is classed as biochemical. The note with it: 85 μM peptide. The method, then:
Assay for gelatinases. Inhibition of MMP-9 and MMP-2 by the different synthetic peptides was measured using casein zymography (Halinen et al., 1996). MMP-9 was purified as described (Sorsa et al., 1997). Subsequently, MMP-2 (2.5 μg) or MMP-9 (2.5 μg) was run on a 10% SDS-PAGE containing two mg/ml casein. The gel was first washed in Triton X-100 containing buffer to remove SDS, and it was cut into five slices which were immersed into peptide (CTT, CLP, CWL or STT) containing solutions (85 μM). After incubation for 48 hrs at 37° C., the gels were stained with Coomassie blue, scanned, and the digested areas quantitated using image analysis (Global Lab Image 3.2, Data Translation Inc. and Acuity Imaging Inc., Marlboro, Mass., USA).

T1 sequence (P14780 94-707): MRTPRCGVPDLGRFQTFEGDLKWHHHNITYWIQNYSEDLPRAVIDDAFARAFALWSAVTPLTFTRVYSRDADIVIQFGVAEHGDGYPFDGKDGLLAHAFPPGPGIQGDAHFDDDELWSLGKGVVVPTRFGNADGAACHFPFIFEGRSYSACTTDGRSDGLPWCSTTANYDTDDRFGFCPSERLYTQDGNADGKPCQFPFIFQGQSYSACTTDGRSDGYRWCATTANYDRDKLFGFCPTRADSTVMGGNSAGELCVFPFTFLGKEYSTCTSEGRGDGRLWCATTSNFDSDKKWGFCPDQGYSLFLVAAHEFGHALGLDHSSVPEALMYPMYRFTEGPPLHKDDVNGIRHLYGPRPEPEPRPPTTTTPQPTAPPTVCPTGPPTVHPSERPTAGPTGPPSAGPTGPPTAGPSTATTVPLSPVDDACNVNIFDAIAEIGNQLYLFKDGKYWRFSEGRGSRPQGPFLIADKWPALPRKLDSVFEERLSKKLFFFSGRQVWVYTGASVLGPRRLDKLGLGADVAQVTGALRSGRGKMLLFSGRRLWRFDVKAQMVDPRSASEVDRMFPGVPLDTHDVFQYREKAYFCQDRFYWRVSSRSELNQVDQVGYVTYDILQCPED

As to `O=C(O)CN(CCN(CC(=O)O)CC(=O)O)CC(=O)O` [EDTA, reference compound], in series [1], the “Inhibition of MMP-9” value is “Complete inhibition”.
On to `CNC(=O)[C@@H](NC(=O)[C@H](CC(C)C)[C@H](O)C(=O)NO)C(C)(C)C` [Marimastat], for which the “Inhibition of liposome transfer into cells” value in series [2] is reported as “approx. 50%”.
`CCCCCCCCCCCCCC(=O)O[C@@H]1[C@@H](C)[C@@]2(O)[C@@H](C=C(CO)C[C@]3(O)C(=O)C(C)=C[C@@H]23)[C@H]2C(C)(C)[C@]12OC(C)=O` [TPA]: the “Effect on uptake of CTT-liposomes” value is “inhibited” in series [3] (prolonged incubation (75 min)) and “increased” in series [3] (short exposure time (15 min)).
As for “CLPGHWGFPSC (cysteine pairing not given here) [CTT homolog, part of EGF-7 domain in human laminin β-1 chain]”, the “Increase in killing of cells vs Adriamycin liposomes without peptide” value in series [4] is 1.3 fold. In addition, in series [5], the “Enhancement of uptake of liposome-encapsulated rhodamine vs liposomes lacking peptide” value (from here on “Enhancement … vs liposomes lacking peptide”) was “Only minor effect”. For the same compound, the “Initial monolayer packing pressure above which membrane penetration was abolished” value in series [6] amounted to 33 mN/m. The “Lipid mixing / vesicle fusion (NBD-PE emission)” value in series [7] is listed as “lack of lipid mixing”.
On to “Cys-Trp-Leu-Thr-Phe-Thr-His-Gly-Thr-Cys (CWLTFTHGTC; disulfide 1-10) [scrambled cyclic peptide, reference compound]”, for which the “Increase in killing of cells vs Adriamycin liposomes without peptide” value in series [4] is “not”. For the same compound, in series [5], the “Enhancement … vs liposomes lacking peptide” value is “inefficient”.
As to STTHWGFTLS, the “Increase in killing of cells vs Adriamycin liposomes without peptide” value in series [4] was found to be 1.7 fold. Besides, in series [5], the “Enhancement … vs liposomes lacking peptide” value is “Only minor effect”. Further, in series [6], the “Initial monolayer packing pressure above which membrane penetration was abolished” value is 31 mN/m. Besides, the “Inhibition of MMP-2 activity” value in series [8] is listed as “approx. 30%”. Besides, in series [7], the “Lipid mixing / vesicle fusion (NBD-PE emission)” value is recorded as “lack of lipid mixing”.
Consider aprotinin, for which the “Inhibition of liposome transfer into cells” value in series [2] was “no significant inhibitory effect”.
